Assay results as given in patent publication US11583529B2, “Treatment of inflammatory disorders” (Aldeyra Therapeutics, Inc., priority 2017, dated 2023).
“Also recorded” adds a separate entry of the source.

System: rat model of diabetic macular edema (DME)
Assay: Rat model of diabetic macular edema (STZ-induced diabetes), intravitreal treatment
Format: in vivo, male brown Norway rats
Experimental: To assess the effect of Compound I-22 in a rat model of diabetic macular edema (DME), Type 1 diabetes was induced in male brown Norway rats by intraperitoneal administration of streptozotocin (STZ; 55 mg/kg). Forty days after STZ administration, animals were assessed for the presence of diabetes by testing blood glucose levels.
Compound I-22 was supplied as a preformulated sterile solution at 5 mg/mL. The vehicle was 25% hydroxypropyl-β-cyclodextrin solution (333 mOsm/kg) in a sodium phosphate buffer, pH 7.2. Animals with diabetes were assigned to groups of ten, to receive either vehicle (HPβCD) or compound I-22.
The study consisted of three groups of male brown Norway rats. Diabetes and diabetic retinopathy were induced in Groups 2 and 3 by intraperitoneal injection of streptozotocin (STZ) on Day 0; Group 1 animals served as non-STZ (non-diabetic) untreated controls. Six and eight weeks after STZ injection, Vehicle (3.5 μL) and Compound I-22 (17.5 μg per eye; 3.5 μL) were administered intravitreally to both eyes of rats in Group 2 and Group 3, respectively. Clinical observations (daily), body weights (weekly), qualitative food consumption, and blood glucose levels (weekly) were assessed. To evaluate retinopathy, electroretinography (ERG) was conducted at Weeks 8, 9 and 10; and optical coherence tomography (OCT) and fundus fluorescein angiography (FFA) were performed pre-dose at Week 6, and at Weeks 8, 9, and 10. Animals were euthanized at 10 weeks post-STZ administration and eyes were collected for histopathological evaluation.
Type 1 diabetes was induced by intraperitoneal administration of 55 mg/kg STZ after an overnight fast. The STZ dosing solution (27.5 mg/mL) was prepared immediately prior to injection by dissolving STZ (Sigma-Aldrich Corp, St. Louis, Mo., Catalog S0130) in a citrate solution (see below) followed by filtration of the STZ solution using a 0.2 μm syringe filter (Pall Life Sciences, Ann Arbor, Mich., Catalog PN4192). The STZ dosing solution was used for injection within approximately 30 minutes after reconstitution.
Electroretinography (ERG) was performed on Days 55, 62 and 69. After an overnight dark adaption, both eyes were dilated with 1% tropicamide. Animals were anesthetized by isoflurane prior to the procedure. ERG responses to light stimuli (8.0 cd·s/m^2) were recorded by RETevet (LKC Technologies, Inc.). Implicit times and amplitudes of a-waves and b-waves were reported. There was a deviation from the protocol in which ERG was not performed prior to Test Article administration (˜Day 40). The deviation had no impact on the conclusion of the study. Baseline ERG measurements are not required to determine efficacy of the Test Article. A […] ERG assessment was added to the study.
Optical coherence tomography (OCT) and fundus fluorescein angiography (FFA) were performed on Day 41 (pre-dose) and Days 56, 63 and 70 (post-dose initiation). Both eyes were dilated with 1% tropicamide. Animals were anesthetized (by ketamine/xylazine intramuscular injection) prior to the procedures.
Retinas of both eyes in each animal were scanned by OCT (Envisu R-Class, Leica/Bioptogen). Thickness of retinal mid-layers, approximately including the outer plexiform layer (OPL), the outer nuclear layer (ONL) and the photoreceptor inner segment (IS), were measured using Bioptigen InVivoVue Reader software. For each eye, four (4) digital calipers were placed randomly on a cross-section image between OPL and IS, away from optic nerve; and measurements were exported to Microsoft Excel files. An average thickness of each retina was calculated from the four (4) measurements, using Microsoft Excel.
For FFA, ˜1.5 mL/kg fluorescein (AK-FLUOR® fluorescein injection, USP, 10%, NDC 17478253-10) was injected intraperitoneally to visualize the retinal vasculature. […]

[1] = 17.5 μg per eye IVT at 6 and 8 weeks after STZ, Week 10, vs vehicle
[2] = 17.5 μg per eye IVT, vs vehicle

Structure (SMILES): CC(C)(O)c1cc2oc(-c3ccccc3)nc2cc1N [Compound I-22]
- tolerability in the retina (17.5 μg per eye IVT): well tolerated
- neutrophil infiltration (histopathology score) [1]: significant reduction; also recorded: blocked
- retinal thickness (histopathology score) [1]: reduced retinal thickness; also recorded: statically significant decrease; also recorded: significantly reduced
- severities of the retinal lesions (histopathology) (17.5 μg per eye IVT at 6 and 8 weeks after STZ, ten weeks after STZ, vs vehicle): significantly diminished; also recorded: statistically significant reductions
- retinal inflammation (17.5 μg per eye IVT, model of DME): decreased
- ERG, OCT, or FFA [2]: did not show statistically significant effects
- diabetes-induced retinal vascular changes [2]: inhibited; also recorded: blocked
- body weights, glucose levels, ERG, OCT or FFA (Group 3 vs Vehicle-treated Group 2): No statistically significant differences
- Mean vascular scores (Week 8, control group 3.0, p<0.05): 2.47
- OCT mean retinal thickness (Week 9, vehicle-treated group 83.3 μm): 82.3 μm
- Retinal thickness (OCT) (Weeks 9 and 10, vs vehicle): reduced at Weeks 9 and 10, however it was not statistically significant
- decrease in retinal vascularity score (microscopic sections of the retinas, vs vehicle, p<0.05): 36%
- ERG changes (relative to the non-diabetic control group): nor were there any ERG changes
- decrease in vascular leakage (vs vehicle-treated group): did not reach statistical significance
